According to patent publication US12060349B2, “Glucosylceramide synthase inhibitors” (Genzyme Corporation, priority 2012, dated 2024):
Read-outs that look alike come from different tables or passages of the source.

Experiments:
[1] = tested on: GM3 expression on the cell surface, C32 human melanoma cells; assay: cell based phenotypic assay, cell surface GM3 by antibody mediated immunofluorescence, C32 (GM3 C32 IC50); settings: Homo sapiens, 50% inhibition of GM3 expression on the cell surface
How it was run: (§1)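 Two melanoma lines, mouse B16 and human C32, were treated and surface GM3 quantified by antibody immunofluorescence for IC50. A parallel viability readout gives the concentration killing 50% of cells, with values over 10 indicating no cell death.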

[2] = tested on: GM3 expression on the cell surface, B16 mouse melanoma cells; assay: cell based phenotypic assay, cell surface GM3 by antibody mediated immunofluorescence, B16 (GM3 B16 IC50); settings: Mus musculus, 50% inhibition of GM3 expression on the cell surface
How it was run: as §1

C32 human melanoma cells = assay: cell viability in the C32 cell-based assay (Viability, C32 IC50); settings: Homo sapiens, concentration causing 50% cell death, values greater than 10 represent a lack of cell death
How it was run: as §1

[3] = target: T1, glucosylceramide synthase (Homo sapiens, UniProt Q16739); assay: microsomal assay measuring conversion of ceramide to glucosylceramide by HPLC (GCS IC50); type: biochemical; settings: concentration causing 50% inhibition of glucosylceramide synthase activity
T1 construct: Microsomes were isolated from A375 human melanoma cells; endogenous in cells; host or cells: A375 human melanoma cells (microsomal fraction, 100,000 g pellet)
T1 sequence (Q16739 1-394): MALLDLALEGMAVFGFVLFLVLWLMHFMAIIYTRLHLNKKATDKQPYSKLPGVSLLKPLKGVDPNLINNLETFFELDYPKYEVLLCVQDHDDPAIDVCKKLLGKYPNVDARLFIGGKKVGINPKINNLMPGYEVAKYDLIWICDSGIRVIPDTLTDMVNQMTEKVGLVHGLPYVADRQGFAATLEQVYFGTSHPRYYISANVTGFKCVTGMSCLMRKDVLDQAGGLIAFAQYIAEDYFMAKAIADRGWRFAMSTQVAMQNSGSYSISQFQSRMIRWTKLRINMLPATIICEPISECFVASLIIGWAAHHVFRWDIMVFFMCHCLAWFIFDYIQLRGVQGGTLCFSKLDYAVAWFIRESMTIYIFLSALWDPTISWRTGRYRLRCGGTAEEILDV
How it was run: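 Microsomal preparation assayed for glucosylceramide synthase by direct HPLC measurement of ceramide conversion to glucosylceramide. GCS IC50 is the compound concentration giving 50% inhibition of enzyme activity.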

B16 mouse melanoma cells = assay: cell viability in the B16 cell-based assay (Viability, B16 IC50); settings: Mus musculus
How it was run: as §1

[4] = read-out: GM3 C32 IC50, C32 human melanoma cells
[5] = read-out: GM3 B16 IC50, B16 mouse melanoma cells
[6] = C32, read-out: Viability, C32 IC50, C32 cells
[7] = B16, read-out: Viability, B16 IC50
[8] = C32 human melanoma cells, read-out: GM3 C32 IC50
[9] = B16 mouse melanoma cells, read-out: GM3 B16 IC50
[10] = C32, C32 cells, read-out: Viability, C32 IC50
[11] = B16, B16 cells, concentration causing 50% cell death, values greater than 10 represent a lack of cell death, read-out: Viability, B16 IC50

Row | IC50 [3] [nM] | IC50 [1, 8] [nM] | IC50 [2, 9] [nM] | SMILES | IC50 [1, 4] [nM] | IC50 [2, 5] [nM] | IC50 (C32 human melanoma cells; [6]) [nM] | IC50 (B16 mouse melanoma cells; [7]) [nM] | IC50 (C32 human melanoma cells; [10]) [nM] | IC50 (B16 mouse melanoma cells; [11]) [nM]
1 | 5.69 | 1.86 | 81.6 | CC1(COc2ccc(-c3ccc(C(C)(C)NC(=O)OC4CCN5CCC4CC5)cc3)cc2)COC1 (stereo not drawn) [Example 192, 1-Azabicyclo[3.2.2]nonan-4-yl (2-(4′-((3-methyloxetan-3-yl)methoxy)-[1,1′-biphenyl]-4-yl)propan-2-yl)carbamate] |  |  |  |  | 1000 | 5840
2 | 297 | 44.7 | 318 | CC1(COc2ccc(-c3ccc(C(C)(C)NC(=O)N4CCN5CCC4CC5)cc3)cc2)COC1 [Example 193, N-(2-(4′-((3-Methyloxetan-3-yl)methoxy)-[1,1′-biphenyl]-4-yl)propan-2-yl)-1,4-diazabicyclo[3.2.2]nonane-4-carboxamide] |  |  |  |  | ≥ 10000 | ≥ 10000
3 | 5.67 | 1.01 | 94.8 | CC(C)(NC(=O)OC1CCN2CCC1CC2)c1ccc(-c2ccc(OCCC3COC3)cc2)cc1 (stereo not drawn) [Example 195, 1-Azabicyclo[3.2.2]nonan-4-yl (2-(4′-(2-(oxetan-3-yl)ethoxy)-[1,1′-biphenyl]-4-yl)propan-2-yl)carbamate] |  |  |  |  | 100 | 8030
4 | 538 | 28.3 | 274 | CC(C)(NC(=O)N1CCN2CCC1CC2)c1ccc(-c2ccc(OCCC3COC3)cc2)cc1 [Example 196, N-(2-(4′-(2-(Oxetan-3-yl)ethoxy)-[1,1′-biphenyl]-4-yl)propan-2-yl)-1,4-diazabicyclo[3.2.2]nonane-4-carboxamide] |  |  |  |  | 1000 | ≥ 10000
5 | 24 | 6.16 | 220 | COCCOCc1ccc(-c2ccc(C(C)(C)NC(=O)OC3CCN4CCC3CC4)cc2)cc1 (stereo not drawn) [Example 200, 1-Azabicyclo[3.2.2]nonan-4-yl (2-(4′-((2-methoxyethoxy)methyl)-[1,1′-biphenyl]-4-yl)propan-2-yl)carbamate] |  |  |  |  | 1000 | ≥ 10000
6 | 13.9 | 0.76 | 23 | COCCOCc1ccc(-c2ccc(C(C)(C)NC(=O)NC3(C)CCN4CCC3CC4)cc2)cc1 (stereo not drawn) [Example 201, 1-(2-(4′-((2-Methoxyethoxy)methyl)-[1,1′-biphenyl]-4-yl)propan-2-yl)-3-(4-methyl-1-azabicyclo[3.2.2]nonan-4-yl)urea] |  |  |  |  | 316 | ≥ 10000
7 | 2350 | 154 | 933 | COCCOCc1ccc(-c2ccc(C(C)(C)NC(=O)N3CCN4CCC3CC4)cc2)cc1 [Example 202, N-(2-(4′-((2-Methoxyethoxy)methyl)-[1,1′-biphenyl]-4-yl)propan-2-yl)-1,4-diazabicyclo[3.2.2]nonane-4-carboxamide] |  |  |  |  | ≥ 10000 | ≥ 10000
8 | 43.3 | 8.26 | 99.3 | COCCOCc1ccc(-c2ccc(C3(NC(=O)OC4CCN5CCC4CC5)CC3)cc2)cc1 (stereo not drawn) [Example 204, 1-Azabicyclo[3.2.2]nonan-4-yl (1-(4′-((2-methoxyethoxy)methyl)-[1,1′-biphenyl]-4-yl)cyclopropyl)carbamate] |  |  |  |  | 1470 | ≥ 10000
9 | 12.3 | 1.39 | 31.3 | COCCOCc1ccc(-c2ccc(C3(NC(=O)NC4(C)CCN5CCC4CC5)CC3)cc2)cc1 (stereo not drawn) [Example 207, 1-(1-(4′-((2-Methoxyethoxy)methyl)-[1,1′-biphenyl]-4-yl)cyclopropyl)-3-(4-methyl-1-azabicyclo[3.2.2]nonan-4-yl)urea] |  |  |  |  | 1780 | ≥ 10000
10 | 3.85 | 2.53 | 47.9 | COCCCc1ccc(-c2ccc(C3(NC(=O)OC4CCN5CCC4CC5)CC3)cc2)cc1 (stereo not drawn) [Example 212, 1-Azabicyclo[3.2.2]nonan-4-yl (1-(4′-(3-methoxypropyl)-[1,1′-biphenyl]-4-yl)cyclopropyl)carbamate] |  |  |  |  | ≥ 10000 | 6360
11 | 1.12 | 0.35 | 5.9 | COCCCc1ccc(-c2ccc(C3(NC(=O)NC4(C)CCN5CCC4CC5)CC3)cc2)cc1 (stereo not drawn) [Example 213, 1-(1-(4′-(3-Methoxypropyl)-[1,1′-biphenyl]-4-yl)cyclopropyl)-3-(4-methyl-1-azabicyclo[3.2.2]nonan-4-yl)urea] |  |  |  |  | ≥ 10000 | 9220

Row | SMILES | IC50 [3] [nM] | IC50 [1, 8] [nM] | IC50 [2, 9] [nM] | IC50 [1, 4] [nM] | IC50 [2, 5] [nM] | IC50 (C32 human melanoma cells; [6]) [nM] | IC50 (B16 mouse melanoma cells; [7]) [nM] | IC50 (C32 human melanoma cells; [10]) [nM] | IC50 (B16 mouse melanoma cells; [11]) [nM]
12 | CC(C)(NC(=O)OC1CN2CCC1CC2)c1ccc(-c2ccc(OCC#N)cc2)cc1 (stereo not drawn) [Example 190, Quinuclidin-3-yl (2-(4′-(cyanomethoxy)-[1,1′-biphenyl]-4-yl)propan-2-yl)carbamate] | 2.59 |  |  | 0.775 | 47.7 | 1000 | ≥ 10000 |  | 
13 | CC1(COc2ccc(-c3ccc(C(C)(C)NC(=O)OC4CN5CCC4CC5)cc3)cc2)COC1 (stereo not drawn) [Example 191, Quinuclidin-3-yl (2-(4′-((3-methyloxetan-3-yl)methoxy)-[1,1′-biphenyl]-4-yl)propan-2-yl)carbamate] | 7.2 |  |  | 3.24 | 71.8 | 1000 | 5250 |  | 
14 | CC(C)(NC(=O)OC1CN2CCC1CC2)c1ccc(-c2ccc(OCCC3COC3)cc2)cc1 (stereo not drawn) [Example 194, Quinuclidin-3-yl (2-(4′-(2-(oxetan-3-yl)ethoxy)-[1,1′-biphenyl]-4-yl)propan-2-yl)carbamate] | 10.5 |  |  | 4.06 | 115 | 1000 | 9930 |  | 
15 | COCCOCc1ccc(-c2ccc(C(C)(C)NC(=O)OC3CN4CCC3CC4)cc2)cc1 (stereo not drawn) [Example 197, Quinuclidin-3-yl (2-(4′-((2-methoxyethoxy)methyl)-[1,1′-biphenyl]-4-yl)propan-2-yl)carbamate] | 32.2 |  |  | 9.67 | 309 | ≥ 10000 | ≥ 10000 |  | 
16 | COCCOCc1ccc(-c2ccc(C(C)(C)NC(=O)NC3(C)CN4CCC3CC4)cc2)cc1 (stereo not drawn) [Example 198, 1-(2-(4′-((2-Methoxyethoxy)methyl)-[1,1′-biphenyl]-4-yl)propan-2-yl)-3-(3-methylquinuclidin-3-yl)urea] | 25.2 | 3.24 | 118 |  |  |  |  | ≥ 10000 | ≥ 10000
17 | CCC1(NC(=O)NC(C)(C)c2ccc(-c3ccc(COCCOC)cc3)cc2)CN2CCC1CC2 (stereo not drawn) [Example 199, 1-(3-Ethylquinuclidin-3-yl)-3-(2-(4′-((2-methoxyethoxy)methyl)-[1,1′-biphenyl]-4-yl)propan-2-yl)urea] | 14.7 | 1.8 | 31.7 |  |  |  |  | 1000 | 1000
18 | COCCOCc1ccc(-c2ccc(C3(NC(=O)NC4(C)CN5CCC4CC5)CC3)cc2)cc1 (stereo not drawn) [Example 205, 1-(1-(4′-((2-Methoxyethoxy)methyl)-[1,1′-biphenyl]-4-yl)cyclopropyl)-3-(3-methylquinuclidin-3-yl)urea] | 51.5 | 5.31 | 156 |  |  |  |  | 1780 | ≥ 10000
19 | CCC1(NC(=O)NC2(c3ccc(-c4ccc(COCCOC)cc4)cc3)CC2)CN2CCC1CC2 (stereo not drawn) [Example 206, 1-(3-Ethylquinuclidin-3-yl)-3-(1-(4′-((2-methoxyethoxy)methyl)-[1,1′-biphenyl]-4-yl)cyclopropyl)urea] | 27.8 | 2.66 | 59.6 |  |  |  |  | 1780 | ≥ 10000
20 | COCCOCc1ccc(-c2ccc(C3(NC(=O)N[C@]4(C)CN5CCC4CC5)CC3)cc2)cc1 [Example 210, (S)-1-(1-(4′-((2-Methoxyethoxy)methyl)-[1,1′-biphenyl]-4-yl)cyclopropyl)-3-(3-methylquinuclidin-3-yl)urea] | 50.2 | 3.34 | 87 |  |  |  |  | ≥ 10000 | ≥ 10000
21 | COCCOCc1ccc(-c2ccc(C3(NC(=O)N[C@@]4(C)CN5CCC4CC5)CC3)cc2)cc1 [Example 211, (R)-1-(1-(4′-((2-Methoxyethoxy)methyl)-[1,1′-biphenyl]-4-yl)cyclopropyl)-3-(3-methylquinuclidin-3-yl)urea] | 938 | 72 | 683 |  |  |  |  | 3160 | ≥ 10000
